Laboratory results as given in ChEMBL document CHEMBL4699534, “Optimizing PEG-Extended Apelin Analogues as Cardioprotective Drug Leads: Importance of the KFRR Motif and Aromatic Head Group for Improved Physiological Activity” (J Med Chem, 2020).
Non-standard residues stand in square brackets, D forms with d. Residues, ends and D or L forms follow the SMILES beside them. Phe(4-Br) = N[C@@H](Cc1ccc(Br)cc1)C(=O)O; PEG7 = NCCOCCOCCOCCOCCOCCOCCOCCC(=O)O; NMeR = CN[C@@H](CCCNC(=N)N)C(=O)O; αMeR = C[C@](N)(CCCNC(=N)N)C(=O)O; NMeL = CN[C@@H](CC(C)C)C(=O)O; Nle = CCCC[C@H](N)C(=O)O; Aib = CC(C)(N)C(=O)O

How the values were obtained:
[1] = system: Mus musculus; assay: Cardioprotective activity in C57BL/6 mouse assessed as reduction in mean arterial blood pressure at 1.4 uM/kg, iv measured after 15 mins relative to control; format: functional; details: 0.25 h
[2] = molecular target: T1, Apelin receptor (Homo sapiens, UniProt P35414); assay: Activation of APJ receptor (unknown origin) expressed in Chem-5 cells assessed as stimulation of Ca2+ mobilization by Calcium 6-GF dye based fluorescence based assay; format: functional, cell-based
T1 sequence (P35414 whole entry): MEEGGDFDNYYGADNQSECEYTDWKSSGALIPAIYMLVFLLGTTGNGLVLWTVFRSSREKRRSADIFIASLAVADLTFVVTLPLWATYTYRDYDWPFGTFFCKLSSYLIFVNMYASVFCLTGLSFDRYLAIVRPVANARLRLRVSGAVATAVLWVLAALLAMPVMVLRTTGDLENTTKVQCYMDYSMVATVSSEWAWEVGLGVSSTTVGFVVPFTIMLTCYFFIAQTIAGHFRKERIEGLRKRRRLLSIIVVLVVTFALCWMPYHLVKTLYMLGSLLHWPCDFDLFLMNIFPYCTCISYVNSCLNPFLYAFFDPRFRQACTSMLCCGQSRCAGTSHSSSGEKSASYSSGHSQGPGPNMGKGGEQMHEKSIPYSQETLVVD

[3] = molecular target: T2, Apelin receptor (Rattus norvegicus, UniProt Q9JHG3); assay: Displacement of [125I]-pyr-1-apelin-13 from EGFP-tagged wild-type rat apelin receptor expressed in CHO cell membranes by gamma counting method; parameters: species or system Cell membrane
T2 sequence (Q9JHG3 whole entry): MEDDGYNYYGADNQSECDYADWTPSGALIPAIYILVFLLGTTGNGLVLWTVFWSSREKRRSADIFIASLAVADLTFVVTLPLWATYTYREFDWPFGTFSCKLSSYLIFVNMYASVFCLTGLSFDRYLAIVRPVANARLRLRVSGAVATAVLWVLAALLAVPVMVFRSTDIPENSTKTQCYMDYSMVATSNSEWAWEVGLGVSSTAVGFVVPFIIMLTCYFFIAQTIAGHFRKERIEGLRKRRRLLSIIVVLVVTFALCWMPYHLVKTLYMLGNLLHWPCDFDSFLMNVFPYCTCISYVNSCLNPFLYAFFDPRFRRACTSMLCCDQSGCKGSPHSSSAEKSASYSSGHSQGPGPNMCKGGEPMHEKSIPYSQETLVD

[4] = Half life in human plasma at 400 uM by HPLC analysis; format: ADME, cell-free

With `CSCC[C@H](NC(=O)[C@@H]1CCCN1C(=O)CNC(=O)[C@H](CCCCN)NC(=O)[C@H](Cc1c[nH]cn1)NC(=O)[C@H](CO)NC(=O)[C@H](CC(C)C)NC(=O)[C@H](CCCNC(=N)N)NC(=O)[C@@H]1CCCN1C(=O)[C@H](CCCNC(=N)N)NC(=O)[C@H](CCC(N)=O)NC(=O)[C@H](CCCNC(=N)N)NC(=O)[C@H](CCCNC(=N)N)NC(=O)[C@H](Cc1ccccc1)NC(=O)[C@H](C)N)C(=O)N1CCC[C@H]1C(=O)N[C@@H](Cc1ccccc1)C(=O)O` the Activity [1] was -14 mmHg, the EC50 [2] was 5.37 nM and the IC50 [3] was 1 nM.
Work on `CCCC[C@H](NC(=O)[C@@H]1CCCN1C(=O)CNC(=O)[C@H](CCCCN)NC(=O)[C@H](Cc1c[nH]cn1)NC(=O)[C@H](CO)NC(=O)[C@H](CC(C)C)N(C)C(=O)[C@H](CCCNC(=N)N)NC(=O)[C@@H]1CCCN1C(=O)[C@H](CCCNC(=N)N)NC(=O)[C@H](CCC(N)=O)NC(=O)CCOCCOCCOCCOCCOCCOCCOCCOCCOCCOCCNC(=O)OCC1c2ccccc2-c2ccccc21)C(=O)NC(C)(C)C(=O)N[C@@H](Cc1ccc(Br)cc1)C(=O)O` yielded an Activity [1] of 1 mmHg, a half-life at 400 µM [4] of 8.6 h and an EC50 [2] greater than 200 nM. It also gave an IC50 [3] of 1.91 nM.
With `CCCC[C@H](NC(=O)[C@@H]1CCCN1C(=O)CNC(=O)[C@H](CCCCN)NC(=O)[C@H](Cc1c[nH]cn1)NC(=O)[C@H](CO)NC(=O)[C@H](CC(C)C)N(C)C(=O)[C@H](CCCNC(=N)N)NC(=O)[C@@H]1CCCN1C(=O)[C@H](CCCNC(=N)N)NC(=O)[C@H](CCC(N)=O)NC(=O)CCOCCOCCOCCOCCOCCOCCNC(=O)OCC1c2ccccc2-c2ccccc21)C(=O)NC(C)(C)C(=O)N[C@@H](Cc1ccc(Br)cc1)C(=O)O` the Activity [1] was 9 mmHg, the half-life at 400 µM [4] was 6.9 h and the EC50 [2] was 49 nM. The IC50 [3] was 3.02 nM.
`CCCC[C@H](NC(=O)[C@@H]1CCCN1C(=O)CNC(=O)[C@H](CCCCN)NC(=O)[C@H](Cc1c[nH]cn1)NC(=O)[C@H](CO)NC(=O)[C@H](CC(C)C)N(C)C(=O)[C@H](CCCNC(=N)N)NC(=O)[C@@H]1CCCN1C(=O)[C@H](CCCNC(=N)N)NC(=O)[C@H](CCC(N)=O)NC(=O)[C@H](CCCNC(=N)N)NC(=O)[C@H](CCCNC(=N)N)NC(=O)[C@H](Cc1ccccc1)NC(=O)[C@H](CCCCN)NC(=O)CCOCCOCCOCCOCCOCCOCCOCCNC(=O)[C@@H](N)Cc1ccccc1)C(=O)NC(C)(C)C(=O)N[C@@H](Cc1ccc(Br)cc1)C(=O)O` (H-F[PEG7]KFRRQRPR[NMeL]SHKGP[Nle][Aib][Phe(4-Br)]-OH) showed an Activity [1] of 24 mmHg, a half-life at 400 µM [4] of 6.4 h and an EC50 [2] of 25.7 nM. It also gave an IC50 [3] of 1.7 nM.
With `CCCC[C@H](NC(=O)[C@@H]1CCCN1C(=O)CNC(=O)[C@H](CCCCN)NC(=O)[C@H](Cc1c[nH]cn1)NC(=O)[C@H](CO)NC(=O)[C@H](CC(C)C)N(C)C(=O)[C@H](CCCNC(=N)N)NC(=O)[C@@H]1CCCN1C(=O)[C@H](CCCNC(=N)N)NC(=O)[C@H](CCC(N)=O)NC(=O)[C@H](CCCNC(=N)N)N(C)C(=O)[C@H](CCCNC(=N)N)NC(=O)[C@H](Cc1ccccc1)NC(=O)[C@@H](N)CCCCN)C(=O)NC(C)(C)C(=O)N[C@@H](Cc1ccc(Br)cc1)C(=O)O` (H-KFR[NMeR]QRPR[NMeL]SHKGP[Nle][Aib][Phe(4-Br)]-OH) the Activity [1] was 14 mmHg, the half-life at 400 µM [4] was 5.2 h and the EC50 [2] was 3.47 nM. The IC50 [3] was 1.51 nM.
Work on `CCCC[C@H](NC(=O)[C@@H]1CCCN1C(=O)CNC(=O)[C@H](CCCCN)NC(=O)[C@H](Cc1c[nH]cn1)NC(=O)[C@H](CO)NC(=O)[C@H](CC(C)C)N(C)C(=O)[C@H](CCCNC(=N)N)NC(=O)[C@@H]1CCCN1C(=O)[C@H](CCCNC(=N)N)NC(=O)[C@H](CCC(N)=O)NC(=O)[C@](C)(CCCNC(=N)N)NC(=O)[C@H](CCCNC(=N)N)NC(=O)[C@H](Cc1ccccc1)NC(=O)[C@@H](N)CCCCN)C(=O)NC(C)(C)C(=O)N[C@@H](Cc1ccc(Br)cc1)C(=O)O` (H-KFR[αMeR]QRPR[NMeL]SHKGP[Nle][Aib][Phe(4-Br)]-OH) yielded an Activity [1] of 18 mmHg, a half-life at 400 µM [4] of 7.1 h and an EC50 [2] of 2.4 nM. It also gave an IC50 [3] of 1 nM.
